In ChEMBL document CHEMBL1201862, “PubChem BioAssay data set” (2004):
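48-hour exposure; five concentrations; linearly interpolated endpoints. At the GI50, growth is halved.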 Calls of active or inactive are those of the source. No stated cut-off is given here; in the data, active = GI50 up to about 1.1 µM and inactive = higher.

Experiments:
Experiment in all cases: growth of human tumour cells (NCI), 48 h
[1] = test system: 786-0
[2] = test system: A498
[3] = test system: A549
[4] = test system: ACHN
[5] = test system: BT-549
[6] = test system: CAKI-1
[7] = test system: CCRF-CEM
[8] = test system: COLO 205
[9] = test system: DU-145
[10] = test system: EKVX
[11] = test system: HCC 2998
[12] = test system: HCT-116
[13] = test system: HCT-15
[14] = test system: HL-60
[15] = test system: HOP-62
[16] = test system: HOP-92
[17] = test system: HT-29
[18] = test system: Hs-578T
[19] = test system: IGROV-1
[20] = test system: K562
[21] = test system: KM12
[22] = test system: LOX IMVI
[23] = test system: M14
[24] = test system: MCF7
[25] = test system: MDA-MB-231
[26] = test system: MDA-MB-435
[27] = test system: MDA-N
[28] = test system: MOLT-4
[29] = test system: NCI-H226
[30] = test system: NCI-H23
[31] = test system: NCI-H460
[32] = test system: NCI/ADR-RES
[33] = test system: OVCAR-3
[34] = test system: OVCAR-4
[35] = test system: OVCAR-5
[36] = test system: OVCAR-8
[37] = test system: PC-3
[38] = test system: RPMI-8226
[39] = test system: RXF 393
[40] = test system: SF-268
[41] = test system: SF-295
[42] = test system: SF-539
[43] = test system: SK-MEL-28
[44] = test system: SK-MEL-2
[45] = test system: SK-MEL-5
[46] = test system: SK-OV-3
[47] = test system: SN12C
[48] = test system: SNB-19
[49] = test system: SR
[50] = test system: T47D
[51] = test system: TK-10
[52] = test system: U-251
[53] = test system: UACC-257
[54] = test system: UACC-62
[55] = test system: UO-31
[56] = test system: Malme-3M
[57] = test system: SNB-75
[58] = test system: SW-620

Compound: Cc1c(C(=O)OCc2ccccc2)[n+]([O-])c2cc(Cl)c(Cl)cc2[n+]1[O-]
- GI50 [1]: 16 µM (inactive)
- GI50 [2]: 20.5 µM (inactive)
- GI50 [3]: 11.1 µM (inactive)
- GI50 [4]: 21.4 µM (inactive)
- GI50 [5]: 20.4 µM (inactive)
- GI50 [6]: 13 µM (inactive)
- GI50 [7]: 14.8 µM (inactive)
- GI50 [8]: 18.2 µM (inactive)
- GI50 [9]: 14.5 µM (inactive)
- GI50 [10]: 13.9 µM (inactive)
- GI50 [11]: 15.2 µM (inactive)
- GI50 [12]: 14.2 µM (inactive)
- GI50 [13]: 16.1 µM
- GI50 [14]: 11.7 µM (inactive)
- GI50 [15]: 14.2 µM (inactive)
- GI50 [16]: 6.27 µM (inactive)
- GI50 [17]: 17.1 µM (inactive)
- GI50 [18]: 19.2 µM (inactive)
- GI50 [19]: 5.83 µM (inactive)
- GI50 [20]: 23.6 µM (inactive)
- GI50 [21]: 10.5 µM (inactive)
- GI50 [22]: 17.2 µM (inactive)
- GI50 [23]: 15 µM (inactive)
- GI50 [24]: 19.5 µM (inactive)
- GI50 [25]: 19.5 µM (inactive)
- GI50 [26]: 19.8 µM (inactive)
- GI50 [27]: 20.6 µM (inactive)
- GI50 [28]: 3.28 µM (inactive)
- GI50 [29]: 5.77 µM (inactive)
- GI50 [30]: 18.5 µM (inactive)
- GI50 [31]: 14.2 µM (inactive)
- GI50 [32]: 18.2 µM (inactive)
- GI50 [33]: 12.2 µM (inactive)
- GI50 [34]: 14 µM (inactive)
- GI50 [35]: 21.3 µM (inactive)
- GI50 [36]: 18.2 µM (inactive)
- GI50 [37]: 15.7 µM (inactive)
- GI50 [38]: 6.46 µM (inactive)
- GI50 [39]: 19.1 µM (inactive)
- GI50 [40]: 17.5 µM (inactive)
- GI50 [41]: 16.8 µM (inactive)
- GI50 [42]: 22.5 µM (inactive)
- GI50 [43]: 25.1 µM (inactive)
- GI50 [44]: 17.4 µM (inactive)
- GI50 [45]: 15 µM (inactive)
- GI50 [46]: 22.5 µM (inactive)
- GI50 [47]: 18.1 µM (inactive)
- GI50 [48]: 27 µM (inactive)
- GI50 [49]: 5.37 µM (inactive)
- GI50 [50]: 5.48 µM (inactive)
- GI50 [51]: 18.7 µM (inactive)
- GI50 [52]: 24.6 µM (inactive)
- GI50 [53]: 15.1 µM (inactive)
- GI50 [54]: 14.9 µM (inactive)
- GI50 [55]: 16.4 µM (inactive)

Compound: O=C(O)C1CC(O)CN1 (stereo not drawn)
- GI50 [1]: > 100 µM (inactive)
- GI50 [2]: > 100 µM (inactive)
- GI50 [3]: > 100 µM (inactive)
- GI50 [4]: > 100 µM (inactive)
- GI50 [5]: > 100 µM (inactive)
- GI50 [6]: > 100 µM (inactive)
- GI50 [7]: > 100 µM (inactive)
- GI50 [8]: > 100 µM (inactive)
- GI50 [9]: > 100 µM (inactive)
- GI50 [10]: > 100 µM (inactive)
- GI50 [11]: > 100 µM (inactive)
- GI50 [12]: > 100 µM (inactive)
- GI50 [13]: > 100 µM
- GI50 [14]: > 100 µM (inactive)
- GI50 [15]: > 100 µM (inactive)
- GI50 [16]: > 100 µM (inactive)
- GI50 [17]: > 100 µM (inactive)
- GI50 [18]: > 100 µM (inactive)
- GI50 [19]: > 100 µM (inactive)
- GI50 [20]: > 100 µM (inactive)
- GI50 [21]: > 100 µM (inactive)
- GI50 [22]: > 100 µM (inactive)
- GI50 [23]: > 100 µM (inactive)
- GI50 [24]: > 100 µM (inactive)
- GI50 [25]: > 100 µM (inactive)
- GI50 [26]: > 100 µM (inactive)
- GI50 [27]: > 100 µM (inactive)
- GI50 [28]: > 100 µM (inactive)
- GI50 [56]: > 100 µM (inactive)
- GI50 [29]: > 100 µM (inactive)
- GI50 [30]: > 100 µM (inactive)
- GI50 [31]: > 100 µM (inactive)
- GI50 [32]: > 100 µM (inactive)
- GI50 [33]: > 100 µM (inactive)
- GI50 [34]: > 100 µM (inactive)
- GI50 [35]: > 100 µM (inactive)
- GI50 [36]: > 100 µM (inactive)
- GI50 [37]: > 100 µM (inactive)
- GI50 [38]: > 100 µM (inactive)
- GI50 [39]: > 100 µM (inactive)
- GI50 [40]: > 100 µM (inactive)
- GI50 [41]: > 100 µM (inactive)
- GI50 [42]: > 100 µM (inactive)
- GI50 [43]: > 100 µM (inactive)
- GI50 [44]: > 100 µM (inactive)
- GI50 [45]: > 100 µM (inactive)
- GI50 [46]: > 100 µM (inactive)
- GI50 [47]: > 100 µM (inactive)
- GI50 [48]: > 100 µM (inactive)
- GI50 [57]: > 100 µM (inactive)
- GI50 [49]: > 100 µM (inactive)
- GI50 [58]: > 100 µM (inactive)
- GI50 [50]: > 100 µM (inactive)
- GI50 [51]: > 100 µM (inactive)
- GI50 [52]: > 100 µM (inactive)
- GI50 [53]: > 100 µM (inactive)
- GI50 [54]: > 100 µM (inactive)
- GI50 [55]: > 100 µM (inactive)
